The subject of this assay is IKZF1, ASS1 and SALL4 recruitment to CRBN. Kind of assay: Recruitment assessment: recruitment of any tested substrate from among IKZF1, ASS1 and SALL4. To be noted: any tested substrate at any tested compound concentration. The format is cell-based. On the procedure:
In this experimental set-up, cells were transfected with a construct encoding a CRBN-fusion protein and another one encoding a substrate-fusion protein. Test compound activity was assessed with increasing concentrations of test compounds (dose-response studies) to monitor the ability to promote CRBN-ligand-induced protein interaction.
Full size proteins were fused for each of the target proteins tested, except in the case of IKZF1 where isoform 7 was used. For the study, the following were used: IKZF1 recruitment: pSEL-CRBN+pMG1-IKZF1(isoform 7); ASS1 recruitment: pSEL-CRBN+pMG1-ASS1. SALL4 recruitment: pSEL-SALL4+pMG1-CRBN. […] Luciferase activity was measured 24 hours after test compound treatment using the Luciferase Assay System kit (PROMEGA, Madison, Wis.) with an Ensight plate reader (PERKIN ELMER LIFE SCIENCES, Waltham, Mass.). Data points depicted fold induction of the average luciferase activity of triplicate samples from EPO+test compound treated cells versus EPO only treated cells. Error bars represent standard deviations. Curves were fit using 4-parameter nonlinear regression in […] PRISM software.
On to `O=C1CCC(N2Cc3ccc(C(F)(F)F)cc3C2=O)C(=O)N1` (centres unmarked) [C45748, 3-[1-oxo-6-(trifluoromethyl)isoindolin-2-yl]piperidine-2,6-dione], for which the “Recruitment Assessment” value is “FALSE”.
As for `O=C1CCC(N2C(=O)c3ccccc3C2NC(=O)c2ccccc2)C(=O)N1` (centres unmarked) [C46003, N-[2-(2,6-dioxo-3-piperidyl)-3-oxo-isoindolin-1-yl]benzamide], the “Recruitment Assessment” value is listed as “FALSE”.
Under `Nc1cccc2c1CN(C1CC(=O)NC(=O)C1)C2=O` [C47927, 4-(4-amino-1-oxo-isoindolin-2-yl)piperidine-2,6-dione] stands “TRUE”; under `Nc1cccc2c1CN(C1CNC(=O)NC1=O)C2=O` (centres unmarked) [C47928, 5-(4-amino-1-oxo-isoindolin-2-yl)hexahydropyrimidine-2,4-dione], “FALSE”.
Turning to `Nc1cccc2c1CN(C1CCCC(=O)NC1=O)C2=O` (centres unmarked) [C47932, 3-(4-amino-1-oxo-isoindolin-2-yl)azepane-2,7-dione], the “Recruitment Assessment” value was “TRUE”.
Under `Nc1cccc2c1CCN(C1CCC(=O)NC1=O)C2=O` (centres unmarked) [C47933, 3-(5-amino-1-oxo-3,4-dihydroisoquinolin-2-yl)piperidine-2,6-dione] stands “TRUE”.
Under `O=C(O)CNc1ccc2c(c1)C(=O)N(C1CCC(=O)NC1=O)C2` (centres unmarked) [C47997, 2-[[2-(2,6-dioxo-3-piperidyl)-3-oxo-isoindolin-5-yl]amino]acetic acid] stands “FALSE”; under `N#Cc1cccc2c1C(=O)N(C1CCC(=O)NC1=O)C2` (centres unmarked) [C48009, 2-(2,6-dioxo-3-piperidyl)-3-oxo-isoindoline-4-carbonitrile], “FALSE”; under `O=C1CCC(N2Cc3cccc(-c4ccccc4)c3C2=O)C(=O)N1` (centres unmarked) [C48020, 3-(1-oxo-7-phenyl-isoindolin-2-yl)piperidine-2,6-dione], “FALSE”.
As for `O=C1N=CC(N2C(=O)c3ccccc3C2=O)C(=O)N1` (centres unmarked) [C49278, 2-(2,6-dioxo-5H-pyrimidin-5-yl)isoindoline-1,3-dione], the “Recruitment Assessment” value is on record as “FALSE”.
Under `CN(C)CC(=O)Nc1ccc2c(c1)C(=O)N(C1CCC(=O)NC1=O)C2` (centres unmarked) [C49708, 2-(dimethylamino)-N-[2-(2,6-dioxo-3-piperidyl)-3-oxo-isoindolin-5-yl]acetamide] stands “FALSE”.
Under `O=C1CCC(N2C(=O)c3ccccc3C2C2=c3ccccc3=NC2)C(=O)N1` (centres unmarked) [C49713, 3-[1-(2H-indol-3-yl)-3-oxo-isoindolin-2-yl]piperidine-2,6-dione] stands “FALSE”.
For `O=C1CCC(N2C(=O)C3CC=CCC3C2=O)C(=O)N1` (centres unmarked) [C51647, 2-(2,6-dioxo-3-piperidyl)-3a,4,7,7a-tetrahydroisoindole-1,3-dione], the “Recruitment Assessment” value is reported as “FALSE”.
As to `O=C1CCC(Nc2ncccn2)C(=O)N1` (centres unmarked) [C55468, 3-(pyrimidin-2-ylamino)piperidine-2,6-dione], the “Recruitment Assessment” value is listed as “FALSE”.
Under `Nc1cccc2c1CN(C1CCS(=O)(=O)NC1=O)C2=O` (centres unmarked) [C55859, 4-(4-Amino-1-oxoisoindolin-2yl)-1,2-thiazinan-3-one 1,1-dioxide] stands “FALSE”; under `COC1c2ccccc2C(=O)N1C1CCC(=O)NC1=O` (centres unmarked) [C56572, 3-(1-methoxy-3-oxo-isoindolin-2-yl)piperidine-2,6-dione], “FALSE”; under `Cc1ccc(NC(=O)NCc2cc(C)c3c(c2)CN(C2CCC(=O)NC2=O)C3=O)cc1Cl` (centres unmarked) [C58181, 1-(3-chloro-4-methyl-phenyl)-3-[[2-(2,6-dioxo-3-piperidyl)-7-methyl-1-oxo-isoindolin-5-yl]methyl]urea], “TRUE”.
For the compound `O=C1CCC(N2Cn3c(cccc3=O)C2=O)C(=O)N1` (centres unmarked) [C60651, 2-(2,6-dioxo-3-piperidyl)-3H-imidazo[1,5-a]pyridine-1,5-dione], the “Recruitment Assessment” value was “FALSE”.
Under `O=C1CCC(N2C(=O)C=C(c3ccccc3)C2=O)C(=O)N1` (centres unmarked) [C64319, 3-(2,5-dioxo-3-phenyl-pyrrol-1-yl)piperidine-2,6-dione] stands “FALSE”.
Regarding `O=C1CCC(N2C(=O)C3=C(CCC3)C2=O)C(=O)N1` (centres unmarked) [C64324, 2-(2,6-dioxo-3-piperidyl)-5,6-dihydro-4H-cyclopenta[c] pyrrole-1,3-dione], the “Recruitment Assessment” value is listed as “FALSE”.
In the case of `O=C1CCC(N2C(=O)CC3(Cc4ccccc4C3)C2=O)C(=O)N1` (centres unmarked) [C64329, 1′-(2,6-dioxo-3-piperidyl)spiro[indane-2,3′-pyrrolidine]-2′,5′-dione], the “Recruitment Assessment” value is “FALSE”.
With `O=C1CCC(N2C(=O)CC(NC(=O)OCc3ccccc3)C2=O)C(=O)N1` (centres unmarked) [C64344, benzyl N-[1-(2,6-dioxo-3-piperidyl)-2,5-dioxo-pyrrolidin-3-yl]carbamate] the entry was “FALSE”; with `O=C1CCC(N2C(=O)CC3(CCOCC3)C2=O)C(=O)N1` (centres unmarked) [C64348, 2-(2,6-dioxo-3-piperidyl)-8-oxa-2-azaspiro[4.5]decane-1,3-dione], “FALSE”.
Regarding `CN1CCC2(CC1)CC(=O)N(C1CCC(=O)NC1=O)C2=O` (centres unmarked) [C64372, 2-(2,6-dioxo-3-piperidyl)-8-methyl-2,8-diazaspiro[4.5]decane-1,3-dione], the “Recruitment Assessment” value is reported as “FALSE”.
Under `Cc1nc(N(C)C)cc2c1C(=O)N(C1CCC(=O)NC1=O)C2=O` (centres unmarked) [C64376, 6-(dimethylamino)-2-(2,6-dioxo-3-piperidyl)-4-methyl-pyrrolo[3,4-c] pyridine-1,3-dione] stands “FALSE”; under `NCc1ccc2c(c1)C(=O)N(C1CCC(=O)NC1=O)C2` (centres unmarked) [C66979, 3-[6-(aminomethyl)-1-oxo-isoindolin-2-yl]piperidine-2,6-dione], “FALSE”; under `Cc1cccc2c1C(=O)N(C1CCC(=O)NC1=O)S2(=O)=O` (centres unmarked) [C73349, 3-(4-methyl-1,1,3-trioxo-1,2-benzothiazol-2-yl)piperidine-2,6-dione], “FALSE”.
With `COc1ccc(Br)c2c1C(=O)N(C1CCC(=O)NC1=O)C2` (centres unmarked) [C74668, 3-(4-bromo-7-methoxy-1-oxo-isoindolin-2-yl)piperidine-2,6-dione] the entry was “FALSE”; with `Cc1cccc2c1S(=O)(=O)N(C1CCC(=O)NC1=O)C2=O` (centres unmarked) [C75688, 3-(7-methyl-1,1,3-trioxo-1,2-benzothiazol-2-yl)piperidine-2,6-dione], “FALSE”.
Take `Cl.NC1Cc2ccccc2C1=O` (centres unmarked) [C75987, 2-aminoindan-1-one; hydrochloride]: the “Recruitment Assessment” value was “FALSE”.
Under `O=C1CCC(N2Cc3cc(Nc4ncnc5sccc45)ccc3C2=O)C(=O)N1` (centres unmarked) [C80370, 3-[1-oxo-5-(thieno[2,3-d]pyrimidin-4-ylamino)isoindolin-2-yl] piperidine-2,6-dione] stands “FALSE”.
Under `O=C1CCC(N2Cc3cc(Nc4ncnc5ccccc45)ccc3C2=O)C(=O)N1` (centres unmarked) [C80373, 3-[-oxo-5-(quinazolin-4-ylamino)isoindolin-2-yl]piperidine-2,6-dione] stands “TRUE”; under `Cn1ncc2c(Nc3ccc4c(c3)CN(C3CCC(=O)NC3=O)C4=O)ncnc21` (centres unmarked) [C80374, 3-[5-[(1-methylpyrazolo[3,4-d]pyrimidin-4-yl)amino]-1-oxo-isoindolin-2-yl]piperidine-2,6-dione], “TRUE”.
With `Nc1nccc(Nc2ccc3c(c2)CN(C2CCC(=O)NC2=O)C3=O)n1` (centres unmarked) [C80375, 3-[5-[(2-aminopyrimidm-4-yl)amino]-1-oxo-isoindolin-2-yl] piperidine-2,6-dione] the entry was “FALSE”.
`Nc1nc(Nc2ccc3c(c2)CN(C2CCC(=O)NC2=O)C3=O)nc2sccc12` (centres unmarked) [C80379, 3-[5-[(4-aminothieno[2,3-d]pyrimidin-2-yl)amino]-1-oxo-isoindolin-2-yl]piperidine-2,6-dione]: the “Recruitment Assessment” value was “TRUE”.
With `CC(=O)O.O=C1CCC(N2Cc3ccc(Nc4ncnc5ccccc45)cc3C2=O)C(=O)N1` (centres unmarked) [C80382 acetic acid salt, acetic acid; 3-[1-oxo-6-(quinazolin-4-ylamino)isoindolin-2-yl]piperidine-2,6-dione], the “Recruitment Assessment” value is “FALSE”.
Regarding `Cn1ncc2c(Nc3ccc4c(c3)C(=O)N(C3CCC(=O)NC3=O)C4)ncnc21` (centres unmarked) [C80383, 3-[6-[(1-methylpyrazolo[3,4-d]pyrimidin-4-yl)amino]-1-oxo-isoindolin-2-yl]piperidine-2,6-dione], the “Recruitment Assessment” value is reported as “FALSE”.
Under `Cc1cc(Nc2ccc3c(c2)C(=O)N(C2CCC(=O)NC2=O)C3)ncn1` (centres unmarked) [C80384, 3-[6-[(6-methylpyrimidin-4-yl)amino]-1-oxo-isoindolin-2-yl] piperidine-2,6-dione] stands “FALSE”; under `O=C1CCC(N2Cc3ccc(Nc4[nH]cnc5nccc4-5)cc3C2=O)C(=O)N1` (centres unmarked) [C80385, 3-[1-oxo-6-(3H-pyrrolo[2,3-d]pyrimidin-4-ylamino)isoindolin-2-yl] piperidine-2,6-dione], “FALSE”; under `O=C1CCC(N2Cc3ccc(Nc4cnc5ccccc5n4)cc3C2=O)C(=O)N1` (centres unmarked) [C80386, 3-[1-oxo-6-(quinoxalin-2-ylamino)isoindolin-2-yl]piperidine-2,6-dione], “FALSE”.
Under `Cn1ccnc(Nc2ccc3c(c2)C(=O)N(C2CCC(=O)NC2=O)C3)c1=O` (centres unmarked) [C80387, 3-[6-[(4-methyl-3-oxo-pyrazin-2-yl)amino]-1-oxo-isoindolin-2-yl] piperidine-2,6-dione] stands “FALSE”.
